Ki and EC50 data for 18 molecules are collected here from US9951064B2, “Azaindazole compounds as inhibitors of T790M containing EGFR mutants” (Genentech, Inc., priority 2013, dated 2018).

pEC50, pKi: −log10 of the molar value. Where two headings read alike, the source gives them in different places.

One assay addresses T1, EGFR T790M L858R (Homo sapiens, UniProt P00533, L858R/T790M).
T1 construct: purchased Life Technologies PV4879
In words: EGFR T790M L858R biochemical assay (Caliper mobility shift). The note with it: 5 μM ATP; apparent Ki (Morrison fit) converted by Cheng-Prusoff, Km of ATP 1.3 μM. The method, then: The exemplified compounds described herein were tested according to the assay below. The enzyme data reported in Tables 4-5 is generally a representative of multiple experiments.
Reactions proceed for 30 minutes at room temperature (22° C.) and are terminated with 80 mM 2,2′,2″,2′″-(ethane-1,2-diyldinitrilo)tetraacetic acid (EDTA). Product is detected using the Caliper mobility shift detection method where product and substrate are electrophoretically separated and measured.

For assay [1], the target named is T2, phosphor-EGFR in H1975(L585R/T790M) mutant EGFR expressing cells (Homo sapiens, UniProt P00533, L858R/T790M).
T2 construct: host or cells: NCI-H1975
Nature of the assay: H1975 pEGFR MSD cellular assay. It is filed as cell-based. The note with it: NCI-H1975 cells, serum starved, 1 hour compound incubation, pEGFR Tyr1068 MSD; read-out: HI975 pEGFR EC50. As to the method:
H1975 pEGFR MSD Cellular Assays
These assays are intended for determining cellular. […] (Meso Scale Discovery Catalog# N31CB-1).
NCI-H1975 (ATCC Catalog# CRL-5908) cells are maintained in medium containing RPMI 1640, 10% FBS, 4 mM L-Glutamine, 1% Penicillin-Streptomycin, and 4.5 g/L Glucose. All cell culture reagents were purchased from Invitrogen/Gibco. Cells are cultured at 37° C. at 5% CO2 and split as recommended by ATCC.
Cell Plating and Serum Starvation:
H1975 cells are harvested and plated into sterile cell culture treated 384 well plates (Greiner catalog #781091) at a density of 30,000 cells/well in 50 ul culture medium and placed in a 37° C. at 5% CO2 incubator for six hours. After six hours, culture medium is aspirated and replaced with serum-free culture medium. Cells are then incubated with the serum-free medium overnight at 37° C. and 5% CO2.
The following day, test compounds are serially diluted in dimethyl sulfoxide (DMSO) and added to cells in serum free medium (final DMSO concentration 0.5%). Assay plates are then incubated for 1 hour at 37° C. and 5% CO2. Following 1 hour of compound incubation cells are then lysed and processed as per the MSD pEGFR assay kit protocol. Cell lysates are added to assay plates pre-coated with antibodies against phosphorylated EGFR. Phosphorylated EGFR in samples are allowed to bind to the capture antibodies overnight at 4° C. The detection antibody (anti-total EGFR, labeled with an electrochemiluminescent SULFO-TAG) is added to the bound lysate and incubated for 1 hour at room temperature. The MSD Read Buffer is added such that when a voltage is applied to the plate electrodes, the labels bound to the electrode surface emit light. The MSD Sector Instrument measures the intensity of the light, and quantitatively measures the amount of phosphorylated-EGFR in the sample. Percent inhibition of EGFR phosphorylation by varying concentrations of test compounds is calculated relative to untreated controls. EC50 values are calculated using the 4 parameter logistic nonlinear regression dose-response model.

Assay [2] relates to H1975 (EGFR T790M/L858R) cell proliferation. In words: H1975 proliferation assay (Cell Titer-Glo). It is filed as cell-based. The note with it: NCI-H1975 cells, 72 hour incubation. As to the method: H1975 Proliferation Assays
All cell culture reagents were purchased from Invitrogen/Gibco. Cells are cultured at 37° C. at 5% CO2 and split as recommended by ATCC.
For orientation: In ATP-based viability assays light output follows the ATP content of the culture.

Where [3] appears, read: Homo sapiens, NCI-H1975, 72 h, read-out: H1975 antiproliferative EC50.

T1 sequence (P00533 25-1210 T790M/L858R): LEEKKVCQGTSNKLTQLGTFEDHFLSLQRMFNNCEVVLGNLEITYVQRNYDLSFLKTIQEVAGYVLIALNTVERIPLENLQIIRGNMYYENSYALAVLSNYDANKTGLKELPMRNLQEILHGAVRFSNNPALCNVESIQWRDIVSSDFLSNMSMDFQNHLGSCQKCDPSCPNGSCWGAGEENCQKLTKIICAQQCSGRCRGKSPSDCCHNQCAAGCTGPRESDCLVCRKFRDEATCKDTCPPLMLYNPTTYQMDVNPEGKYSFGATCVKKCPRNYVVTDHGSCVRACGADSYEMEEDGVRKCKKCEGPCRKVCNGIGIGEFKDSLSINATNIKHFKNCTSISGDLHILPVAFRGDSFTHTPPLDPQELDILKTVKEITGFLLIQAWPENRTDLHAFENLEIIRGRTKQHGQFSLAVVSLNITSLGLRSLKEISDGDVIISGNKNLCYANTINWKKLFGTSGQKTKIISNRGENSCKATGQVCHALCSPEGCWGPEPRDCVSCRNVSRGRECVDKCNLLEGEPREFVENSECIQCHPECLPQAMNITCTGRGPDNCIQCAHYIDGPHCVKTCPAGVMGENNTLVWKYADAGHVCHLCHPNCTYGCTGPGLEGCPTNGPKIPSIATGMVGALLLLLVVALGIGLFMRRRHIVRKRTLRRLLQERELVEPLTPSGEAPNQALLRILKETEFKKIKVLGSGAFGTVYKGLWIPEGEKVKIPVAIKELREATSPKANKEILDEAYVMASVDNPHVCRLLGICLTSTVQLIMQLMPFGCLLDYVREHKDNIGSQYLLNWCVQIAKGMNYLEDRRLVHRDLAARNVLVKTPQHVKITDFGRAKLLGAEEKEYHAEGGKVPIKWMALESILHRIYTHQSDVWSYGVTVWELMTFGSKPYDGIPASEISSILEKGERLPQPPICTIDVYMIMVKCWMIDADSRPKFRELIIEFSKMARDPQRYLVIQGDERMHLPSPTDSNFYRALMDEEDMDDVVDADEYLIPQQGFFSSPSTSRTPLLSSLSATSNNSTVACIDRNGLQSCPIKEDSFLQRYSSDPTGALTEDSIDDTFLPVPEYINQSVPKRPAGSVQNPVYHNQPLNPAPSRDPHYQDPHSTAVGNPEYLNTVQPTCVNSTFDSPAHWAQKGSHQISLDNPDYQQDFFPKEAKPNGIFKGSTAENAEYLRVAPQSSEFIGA
T2 sequence (P00533 25-1210 T790M/L858R): as above

The term pKi denotes the Ki on a negative log10 scale, so that one unit is a factor of ten. As a reminder, the pEC50 is −log10 of the EC50, conventionally taken in molar units. In the case of `CCC(C)n1nc(N2CC(C(C)(C)O)C2)c2cnc(Nc3ccnc(N4CCC(O)C(C)(C)C4)n3)cc21` (mixture of isomers) [Example 12, 1-(4-((1-(sec-Butyl)-3-(3-(2-hydroxypropan-2-yl)azetidin-1-yl)-1H-pyrazolo[4,3-c]pyridin-6-yl)amino)pyrimidin-2-yl)-3,3-dimethylpiperidin-4-ol], the pKi at EGFR T790M L858R was 8.66. The negative-log EC50 (pEC50) in assay [1] was 7.52; in assay [2] (setting [3]), 6.54.
In the same order, the values of `CCC(C)n1nc(N2CC3(COC3)C2)c2cnc(Nc3ccnc(-c4cnn(S(=O)(=O)C5CC5)c4)n3)cc21` (racemic) [Example 14, 1-(sec-Butyl)-N-(2-(1-(cyclopropylsulfonyl)-1H-pyrazol-4-yl)pyrimidin-4-yl)-3-(2-oxa-6-azaspiro[3.3]heptan-6-yl)-1H-pyrazolo[4,3-c]pyridin-6-amine] are 9.00, 7.71 and 6.67.
In the same order, the values of `CC(C)n1nc(N2CCOCC2)c2cnc(Nc3ccnc(N4CCC(O)C(F)C4)n3)cc21` (racemic) [Example 20, (±)-cis-3-Fluoro-1-[4-(1-isopropyl-3-morpholin-4-yl-1H-pyrazolo[4,3-c]pyridin-6-ylamino)pyrimidin-2-yl]piperidin-4-ol] are 8.60, 6.87 and 5.97.
For the molecule `CCC(C)n1nc(N2CC(C(C)(C)O)C2)c2cnc(Nc3ccnc(-c4cnn(S(=O)(=O)C5CC5)c4)n3)cc21` (single isomer, unassigned) [Example 13, enantiomer 1, 2-(1-(1-(sec-Butyl)-6-((2-(1-(cyclopropylsulfonyl)-1H-pyrazol-4-yl)pyrimidin-4-yl)amino)-1H-pyrazolo[4,3-c]pyridin-3-yl)azetidin-3-yl)propan-2-ol], in assay [2] (setting [3]), the pEC50 is 6.44.
As to `CCC(C)n1nc(N2CC(C(C)(C)O)C2)c2cnc(Nc3ccnc(-c4cnn(S(=O)(=O)C5CC5)c4)n3)cc21` (single isomer, unassigned) [Example 13, enantiomer 2, 2-(1-(1-(sec-Butyl)-6-((2-(1-(cyclopropylsulfonyl)-1H-pyrazol-4-yl)pyrimidin-4-yl)amino)-1H-pyrazolo[4,3-c]pyridin-3-yl)azetidin-3-yl)propan-2-ol], the pEC50 in assay [2] (listed as 13, enantiomer 2, read-out: H1975 antiproliferative EC50) was 6.20.
With `CCC(C)n1nc(N2CCOCC2)c2cnc(Nc3ccnc(-c4cnn(S(=O)(=O)C5CC5)c4)n3)cc21` (single isomer, unassigned) [Example 27, enantiomer 1, 1-(sec-Butyl)-N-(2-(1-(cyclopropylsulfonyl)-1H-pyrazol-4-yl)pyrimidin-4-yl)-3-morpholino-1H-pyrazolo[4,3-c]pyridin-6-amine], the pEC50 in assay [2] (setting [3]) is 6.21.
As to `CCC(C)n1nc(N2CCOCC2)c2cnc(Nc3ccnc(-c4cnn(S(=O)(=O)C5CC5)c4)n3)cc21` (single isomer, unassigned) [Example 27, enantiomer 2, 1-(sec-Butyl)-N-(2-(1-(cyclopropylsulfonyl)-1H-pyrazol-4-yl)pyrimidin-4-yl)-3-morpholino-1H-pyrazolo[4,3-c]pyridin-6-amine], the pEC50 in assay [2] (listed as 27, enantiomer 2, read-out: H1975 antiproliferative EC50) was 5.94.
`CC(C)n1nc(F)c2cnc(Nc3ccnc(-c4cnn(S(=O)(=O)C5CC5)c4)n3)cc21` [Example 7, N-(2-(1-(Cyclopropylsulfonyl)-1H-pyrazol-4-yl)pyrimidin-4-yl)-3-fluoro-1-isopropyl-1H-pyrazolo[4,3-c]pyridin-6-amine]: the pKi at EGFR T790M L858R was 6.53. In addition, in assay [2] (setting [3]), the pEC50 is less than 5.00.
For `COC1CCN(c2nccc(Nc3cc4c(cn3)c(C(N)=O)nn4C(C)C)n2)CC1` [Example 11, 1-Isopropyl-6-((2-(4-methoxypiperidin-1-yl)pyrimidin-4-yl)amino)-1H-pyrazolo[4,3-c]pyridine-3-carboxamide], the pKi on EGFR T790M L858R was 7.54.
Take `CCC(C)n1nc(N2CC(N)C(F)(F)C2)c2cnc(Nc3ccnc(N4CCC(C)(O)CC4)n3)cc21` (stereo not drawn) [Example 184, 1-(4-(3-(4-Amino-3,3-difluoropyrrolidin-1-yl)-1-sec-butyl-1H-pyrazolo[4,3-c]pyridin-6-ylamino)pyrimidin-2-yl)-4-methylpiperidin-4-ol]: the figures for the pEC50 in assay [1] and in assay [2] (setting [3]) were 7.02 and 6.12, respectively.
In the same order, the values of `CCC(C)n1nc(N2CC[C@H](O)C2=O)c2cnc(Nc3ccnc(-c4cnn(S(=O)(=O)C5CC5)c4)n3)cc21` (stereo partly drawn) [Example 185, (3S)-(1-sec-Butyl-6-(2-(1-(cyclopropylsulfonyl)-1H-pyrazol-4-yl)pyrimidin-4-ylamino)-1H-pyrazolo[4,3-c]pyridin-3-yl)-3-hydroxypyrrolidin-2-one] are 7.07 and 6.16.
Regarding `CCC(C)n1nc(N2CC[C@@H](O)C2=O)c2cnc(Nc3ccnc(-c4cnn(S(=O)(=O)C5CC5)c4)n3)cc21` (stereo partly drawn) [Example 186, (3R)-1-(1-sec-Butyl-6-(2-(1-(cyclopropylsulfonyl)-1H-pyrazol-4-yl)pyrimidin-4-ylamino)-1H-pyrazolo[4,3-c]pyridin-3-yl)-3-hydroxypyrrolidin-2-one], the pEC50 in assay [1] was 7.13; in assay [2] (setting [3]) it was 6.23.
In the same order, the values of `CCC(C)n1nc(N2CCN(C(=O)[C@H](C)O)CC2)c2cnc(Nc3ccnc(-c4cnn(S(=O)(=O)C5CC5)c4)n3)cc21` (stereo partly drawn) [Example 187, (2S)-1-(4-(1-sec-Butyl-6-(2-(1-(cyclopropylsulfonyl)-1H-pyrazol-4-yl)pyrimidin-4-ylamino)-1H-pyrazolo[4,3-c]pyridin-3-yl)piperazin-1-yl)-2-hydroxypropan-1-one] are 7.12 and 6.09.
`CCC(C)n1nc(N2CCN(C(=O)[C@@H](C)O)CC2)c2cnc(Nc3ccnc(-c4cnn(S(=O)(=O)C5CC5)c4)n3)cc21` (stereo partly drawn) [Example 188, (2R)-1-(4-(1-sec-Butyl-6-(2-(1-(cyclopropylsulfonyl)-1H-pyrazol-4-yl)pyrimidin-4-ylamino)-1H-pyrazolo[4,3-c]pyridin-3-yl)piperazin-1-yl)-2-hydroxypropan-1-one]: the pEC50 in assay [1] was 7.19; in assay [2] (setting [3]), 5.96.
In the same order, the values of `CCC(C)n1nc(N2C[C@@H](CO)NC2=O)c2cnc(Nc3ccnc(-c4cnn(S(=O)(=O)C5CC5)c4)n3)cc21` (stereo partly drawn) [Example 189, (4S)-1-(1-sec-Butyl-6-(2-(1-(cyclopropylsulfonyl)-1H-pyrazol-4-yl)pyrimidin-4-ylamino)-1H-pyrazolo[4,3-c]pyridin-3-yl)-4-(hydroxymethyl)imidazolidin-2-one] are 6.32 and 5.25.
In the same order, the values of `CCC(C)n1nc(N2CC(C(C)O)C2)c2cnc(Nc3ccnc(-c4cnn(S(=O)(=O)C5CC5)c4)n3)cc21` (stereo not drawn) [Example 190, 1-(1-(1-sec-Butyl-6-(2-(1-(cyclopropylsulfonyl)-1H-pyrazol-4-yl)pyrimidin-4-ylamino)-1H-pyrazolo[4,3-c]pyridin-3-yl)azetidin-3-yl)ethanol] are 7.35 and 6.27.
As for `CC(C)n1nc(N2C[C@@H](O)[C@@H](O)C2)c2cnc(Nc3ccnc(N4CCC(C)(O)CC4)n3)cc21` [Example 191, (±)-1-(6-(2-(4-Hydroxy-4-methylpiperidin-1-yl)pyrimidin-4-ylamino)-1-isopropyl-1H-pyrazolo[4,3-c]pyridin-3-yl)pyrrolidine-cis-3,4-diol], the values for the pEC50 in assay [1] and in assay [2] (setting [3]) were 6.27 and less than 5.00, respectively.
On to `CC(C)n1nc(N2C[C@H](O)[C@@H](O)C2)c2cnc(Nc3ccnc(N4CCC(C)(O)CC4)n3)cc21` [Example 192, (3S,4S)-1-(6-(2-(4-Hydroxy-4-methylpiperidin-1-yl)pyrimidin-4-ylamino)-1-isopropyl-1H-pyrazolo[4,3-c]pyridin-3-yl)pyrrolidine-3,4-diol], for which, in assay [2] (setting [3]), the pEC50 is less than 5.00.
